This passage reports IC50 results from US20250243215A1, “INHIBITORS OF EPIDERMAL GROWTH FACTOR RECEPTOR” (National Health Research Institutes, priority 2024, published 2025).

Experiment [1] has as its system H1975 (double-mutant overexpressing) cells. Description: Cell proliferation assay (MTS), H1975. The format is cell-based. The following applies: Homo sapiens, NCI-H1975, 96 h exposure.
Experimental: (§1) A431 (wild-type EGFR overexpressing) and H1975 (double-mutant overexpressing) cells were exposed to test compounds for 96 h and the cell proliferation was determined by the MTS method.
Experiment [2] has as its system A431 (wild-type EGFR overexpressing) cells. The experiment can be described thus: Cell proliferation assay (MTS), A431. The format is cell-based. The following applies: Homo sapiens, A-431, 96 h exposure.
Experimental: as §1

Regarding `C=CC(=O)Nc1cc(-c2c(-c3ccccc3)oc3ncnc(N[C@H]4CC[C@H](O)CC4)c23)ccc1N(C)CCN(C)C` [Compound 55, N-(2-{[2-(Dimethylamino)ethyl](methyl)amino}-5-{4-[(4-hydroxy-cyclohexyl)amino]-6-phenylfuro[2,3-d]pyrimidin-5-yl}phenyl)prop-2-enamide], the concentration for half-maximal inhibition (IC50) (as a rule, the concentration at which inhibition is half-maximal) in experiment [1] is less than 200 nM; in experiment [2], 200 to 5000 nM.
For `C=CC(=O)Nc1cc(-c2c(-c3ccccc3)oc3ncnc(Nc4ccccc4)c23)ccc1N(C)CCN(C)C` [Compound 43, N-(2-{[2-(Dimethylamino)ethyl](methyl)amino}-5-[6-phenyl-4-(phenylamino)furo[2,3-d]pyrimidin-5-yl]phenyl)prop-2-enamide], in that order: less than 200 nM and 200 to 5000 nM.
In the same order, the values of `C=CC(=O)Nc1cc(-c2c(-c3ccccc3)oc3ncnc(NCCc4ccc(O)cc4)c23)ccc1N1CCN(C)CC1` [Compound 36, N-[5-(4-{[2-(4-Hydroxyphenyl)ethyl]amino}-6-phenylfuro[2,3-d]pyrimidin-5-yl)-2-(4-methylpiperazin-1-yl)phenyl]prop-2-enamide] are 200 to 5000 nM and 200 to 5000 nM.
In the same order, the values of `C=CC(=O)Nc1cc(-c2c(-c3ccccc3)oc3ncnc(NC4CCCC4)c23)ccc1N1CC[C@@H](N(C)C)C1` [Compound 28, N-{5-[4-(Cyclopentylamino)-6-phenylfuro[2,3-d]pyrimidin-5-yl]-2-[(3R)-3-(dimethylamino)pyrrolidin-1-yl]phenyl}prop-2-enamide] are 200 to 5000 nM and more than 5000 nM.
For the molecule `C=CC(=O)Nc1cc(-c2c(-c3ccccc3)oc3ncnc(N[C@@H]4CCCC[C@@H]4O)c23)ccc1N(C)CCN(C)C` [Compound 53, N-[2-{[2-(Dimethylamino)ethyl](methyl)amino}-5-(4-{[(1R,2S)-2-hydroxycyclohexyl]amino}-6-phenylfuro[2,3-d]pyrimidin-5-yl)phenyl]prop-2-enamide], the IC50 was less than 200 nM in experiment [1] and 200 to 5000 nM in experiment [2].
In the same order, the values of `C=CC(=O)Nc1cc(-c2c(-c3ccc(F)cc3)oc3ncnc(NC4CCCC4)c23)ccc1N(C)CCN(C)C` [Compound 42, N-(5-[4-(Cyclopentylamino)-6-(4-fluorophenyl)furo[2,3-d]pyrimi-din-5-yl]-2-{[2-(dimethylamino)ethyl](methyl)amino}phenyl)prop-2-enamide] are less than 200 nM and 200 to 5000 nM.
Turning to `C=CC(=O)Nc1cc(-c2c(-c3ccccc3)oc3ncnc(NCCc4ccc(O)cc4)c23)ccc1N(C)CCN1CCN(C)CC1` [Compound 40, N-[5-(4-{[2-(4-Hydroxyphenyl)ethyl]amino}-6-phenylfuro[2,3-d]pyrimidin-5-yl)-2-{methyl [2-(4-methylpiperazin-1-yl)ethyl]amino}phenyl]prop-2-enamide], the concentration for half-maximal inhibition (IC50) in experiment [1] was 200 to 5000 nM; in experiment [2], more than 5000 nM.
For `C=CC(=O)Nc1cccc(-c2c(-c3ccccc3)oc3ncnc(N4CCC4)c23)c1` [Compound 61, N-{3-[4-(Azetidin-1-yl)-6-phenylfuro[2,3-d]pyrimidin-5-yl]phenyl}prop-2-enamide], in that order: less than 200 nM and 200 to 5000 nM.
For the molecule `C=CC(=O)Nc1cc(-c2c(-c3ccccc3)oc3ncnc(NCCc4ccc(S(N)(=O)=O)cc4)c23)ccc1N(C)CCN(C)C` [Compound 41, N-(5-[4-({2-[4-(Aminosulfonyl)phenyl]ethyl}amino)-6-phenylfuro-[2,3-d]pyrimidin-5-yl]-2-{[2-(dimethylamino)ethyl](methyl)amino}phenyl)prop-2-enamide], the figures for the IC50 in experiment [1] and in experiment [2] were less than 200 nM and 200 to 5000 nM, respectively.
For `C=CC(=O)Nc1cc(-c2c(-c3ccccc3)oc3ncnc(N[C@H]4CC[C@@H](O)CC4)c23)ccc1N(C)CCN(C)C` [Compound 52, N-(2-{[2-(Dimethylamino)ethyl](methyl)amino}-5-{4-[(4-hydroxy-cyclohexyl)amino]-6-phenylfuro[2,3-d]pyrimidin-5-yl}phenyl)prop-2-enamide], in that order: less than 200 nM and 200 to 5000 nM.
In the same order, the values of `C=CC(=O)Nc1cc(-c2c(-c3ccccc3)oc3ncnc(NCCc4ccc(O)cc4)c23)ccc1N(C)CCN(C)C` [Compound 37, N-[2-{[2-(Dimethylamino)ethyl](methyl)amino}-5-(4-{[2-(4-hydroxyphenyl)ethyl]amino}-6-phenylfuro[2,3-d]pyrimidin-5-yl)phenyl]prop-2-enamide] are 200 to 5000 nM and 200 to 5000 nM.
